Source: patent US20250275538A1, “COMPOSITIONS CONTAINING L-CARNITINE AND SEAWEED EXTRACT FOR MITIGATING ABIOTIC STRESS IN PLANTS” (ACADIAN SEAPLANTS LIMITED, priority 2022, published 2025)

Columns and labels:
Format in all cases: in vivo
soybean (cv. Mungo) = experiment: Soybean drought stress greenhouse trial (seed treatment); conditions: 51 days after sowing, ANE alone 1 ml/kg, CAR alone 0.3 g/kg
Method: Soybean seed (cv. Mungo) was treated at a total application volume of 10 ml/kg with water (unstressed control and stressed control treatment groups), or an aqueous solution of Ascophyllum nodosum extract (ANE) at 1 ml/kg, or an aqueous solution of L-carnitine hydrochloride (CAR) at 0.3 g/kg, or combinations of Ascophyllum nodosum extract at 1 ml/kg with either 0.1, 0.2, 0.3, or 0.4 g/kg L-carnitine hydrochloride. Treated soybean seed was sown in pots containing soil with 10 biological replicates per treatment group in a randomized complete block design. Four days after full emergence, drought stress was imposed on all but the unstressed control treatment group through a 50% reduced irrigation regime relative to the full irrigation received by the unstressed control group.

[1] = test system: winter wheat (cv. Marius); experiment: Wheat drought stress greenhouse trial (seed treatment); conditions: ANE alone 1 ml/kg, CAR alone 0.3 g/kg; for plant vigour, Mean: 0-10 scale
Method: Winter wheat seed (cv. Marius) was treated at a total application volume of 10 ml/kg with water (unstressed control and stressed control treatment groups), or an aqueous solution of Ascophyllum nodosum extract (ANE) at 1 ml/kg, or an aqueous solution of L-carnitine hydrochloride (CAR) at 0.3 g/kg, or combinations of Ascophyllum nodosum extract at 1 ml/kg with either 0.1, 0.2, 0.3, or 0.4 g/kg L-carnitine hydrochloride. Treated wheat seed was sown in soil in pots with 10 biological replicates per treatment group in a randomized complete block design. Four days after full emergence, drought stress was imposed on all but the unstressed control treatment group through a 50% reduced irrigation regime relative to the full irrigation received by the unstressed control group.

[2] = test system: winter wheat (cv. Marius); experiment: Wheat salinity stress greenhouse trial (seed treatment); conditions: ANE alone 1 ml/kg, CAR alone 0.3 g/kg
Method: Winter wheat seed (cv. Marius) was treated at a total application volume of 10 ml/kg with water (unstressed control and stressed control treatment groups), or an aqueous solution of Ascophyllum nodosum extract (ANE) at 1 ml/kg, or an aqueous solution of L-carnitine hydrochloride (CAR) at 0.3 g/kg, or combinations of Ascophyllum nodosum extract at 1 ml/kg with either 0.1, 0.2, 0.3, or 0.4 g/kg L-carnitine hydrochloride. Treated wheat seed was sown in pots containing soil with 10 biological replicates per treatment group in a randomized complete block design. Four days after full emergence, salinity stress was imposed on all but the unstressed control treatment group through irrigation with saline water (8 g/l NaCl) for the remainder of the trial. The unstressed control treatment group was irrigated with non-saline water.

[3] = test system: Marula soybean (reference SEED-003); experiment: Soybean subject to salinity stress (seed treatment), NPQt, shoot weight and synergy assessment; conditions: 17 days after sowing, ANE alone 0.36 g
Method: To supplement the observed evidence of efficacy, a synergy assessment was made. Synergy was calculated using two different methodologies, both of which find support in the literature: 1) Equation Ill from Colby, S. R. 1967. Calculating synergistic and antagonistic responses of herbicide combinations. Weed Science 15:20-22. and 2) Equation 2 from Huang, Z., and K. A. Falco. 2021. Synergy assessment for plant growth by independent joint action theory. HortScience 56(5):623-626. doi: 10.21273/HORTSC115731-21. A one-sample, two-tailed t-test was used to assess the statistical significance of the difference between the observed and predicted means. The same Seed Treatments solutions (Table 20) and trial protocol were used as in Example 6, but seeds were planted at 1.5″. To coat seeds, 0.3 mL of treatment solution was pipetted into a 500-mL glass beaker around the edges and 30 g of soybean seed was added. Marula soybean seed (reference SEED-003) from Prograin was used, without any other treatment. An estimate of NPQt was obtained using the MultispeQ™ (B-4003-AA) from PhotosynQ, according to manufaturer's directions. For the photosynthesis measuments a total of 12-14 plants per treatment were measured. For Example 7, parametric analysis of variance (ANOVA) was done using the aov function in the ggpubr package, and multiple comparison testing was done with the Tukey test (alpha=0.1) using the TukeyHSD function in the stats package in R. Shoot weight was evaluated to assess whether the positive effects observed in NPQt was reflected in more robust plant grown. Seven cell packs per treatment were measured for shoot weight.

[4] = test system: wheat (cultivar Skyfall, ref. SEED-0035); experiment: Wheat subject to cold stress (seed treatment), NPQt and synergy assessment; conditions: 10 days after sowing, ANE alone 0.36 g
Method: Seed Treatment solutions were prepared per Table 20:
0.1 mL of treatment solution was pipetted into a 500-mL glass beaker around the edges and 10 g of wheat seed (cultivar Skyfall, ref. SEED-0035) was added. The beaker was swirled by hand for 1 min to coat the seeds, which were then swirled intermittently until dry, if needed.
The trial was set up according to the following protocol: • 1. 32 8-0-6 cell packs were labelled with coloured stickers to denote five treatments with 4 cell packs for non-stress controls and 7 for the remaining 4 treatments. • 2. In a container 6 L of stored field soil and 600 mL water were mixed thoroughly. • 3. If soil was too dry, an additional 300 mL water, or an amount as appropriate, was added. • 4. […]
An estimate of non-photochemical quenching (NPQt), which is the amount of incoming light that is regulated away from photosynthetic processes in order to reduce damage to the plant was obtained using the MultispeQ (B-4003-AA) from PhotosynQ, according to manufaturer's directions. For the photosynthesis measuments a total of 12-14 plants per treatment were measured. […]
To supplement the observed evidence of efficacy, a synergy assessment was made. Synergy was calculated using two different methodologies, both of which find support in the literature: 1) Equation Ill from Colby, S. R. 1967. […]

corn (cv. H140354) = experiment: Corn drought stress controlled environment room trial (seed treatment); conditions: 10 days after sowing
Method: Corn seed (cv. H140354) was treated at a total application volume of 10 ml/kg with water (unstressed control and stressed control treatment groups), or an aqueous solution of Ascophyllum nodosum extract (ANE) at 2 ml/kg, or an aqueous solution of L-carnitine hydrochloride (CAR) at 0.3 g/kg, or a combinations of Ascophyllum nodosum extract at 2 ml/kg and 0.3 g/kg L-carnitine hydrochloride. Treated corn seed was sown in field soil inside cell packs set in greenhouse trays with 16 biological replicates per treatment group in a randomized complete block design. Three days after seeding, drought stress was imposed on all but the unstressed control treatment group through a 75% reduced irrigation regime relative to the full irrigation received by the unstressed control group, and assessments were made ten days after seeding.

[5] = drought stress (50% reduced irrigation)
[6] = compared to stressed control, drought stress
[7] = 50 days after sowing, drought stress (50% reduced irrigation)
[8] = compared to stressed control, 50 days after sowing, drought stress
[9] = compared to stressed control, Carnitine alone 0.30 g
[10] = drought stress (75% reduced irrigation), ANE alone 2 ml/kg, CAR alone 0.3 g/kg
[11] = compared to stressed control, drought stress, ANE alone 2 ml/kg, CAR alone 0.3 g/kg

## C[N+](C)(C)C[C@H](O)CC(=O)[O-].Cl [CAR, L-carnitine hydrochloride]
Soybean (cv. Mungo); [5]
  foliar dry weight, Mean: 12.64
  foliar fresh weight, Mean: 49.1
  plant vigour, Mean: 9.4
Soybean (cv. Mungo); [6]
  foliar dry weight, Difference (%): 55.9%
  foliar fresh weight, Difference (%): 24.9%
  plant vigour, Difference (%): 23.7%
[1]; 21 days after sowing, drought stress (50% reduced irrigation), combinations as labelled
  plant vigour, Mean: 7.60
[1]; 42 days after sowing, drought stress (50% reduced irrigation)
  plant vigour, Mean: 8.35
[1]; [7]
  foliar fresh weight, Mean: 9.94
  root fresh weight, Mean: 3.66
[1]; compared to stressed control, 21 days after sowing, drought stress
  plant vigour, Difference (%): 7.0%
[1]; compared to stressed control, 42 days after sowing, drought stress
  plant vigour, Difference (%): 11.3%
[1]; [8]
  foliar fresh weight, Difference (%): 9.9%
  root fresh weight, Difference (%): 67.5%
[2]; 22 days after sowing, salinity stress (irrigation with 8 g/l NaCl)
  plant height, Mean: 27.55
[2]; 29 days after sowing, salinity stress (8 g/l NaCl)
  relative chlorophyll content (SPAD), Mean: 35.30
[2]; 35 days after sowing, salinity stress (8 g/l NaCl)
  plant height, Mean: 37.39
[2]; 43 days after sowing, salinity stress (8 g/l NaCl)
  plant vigour, Mean: 8.68
[2]; 50 days after sowing, salinity stress (8 g/l NaCl)
  fresh foliar biomass, Mean: 10.6
[2]; compared to stressed control, 22 days after sowing, salinity stress
  plant height, Difference (%): 6.8%
[2]; compared to stressed control, 29 days after sowing, salinity stress
  relative chlorophyll content (SPAD), Difference (%): 17.1%
[2]; compared to stressed control, 35 days after sowing, salinity stress
  plant height, Difference (%): 17.2%
[2]; compared to stressed control, 43 days after sowing, salinity stress
  plant vigour, Difference (%): 9.9%
[2]; compared to stressed control, 50 days after sowing, salinity stress
  fresh foliar biomass, Difference (%): 29.3%
[3]; Carnitine alone 0.30 g
  shoot weight (Shoot Fresh Weight), Mean: 1.69
[3]; Carnitine alone 0.30 g (Table 20 solutions)
  non-photochemical quenching (NPQt), Mean: 0.76
[3]; [9]
  non-photochemical quenching (NPQt), Difference (%): −12.4%
  shoot weight, Difference (%): 3.0%
[4]; cold stress 13/8° C. day/night for 4 days, Carnitine alone 0.30 g (Table 20 solutions)
  non-photochemical quenching (NPQt), Mean: 0.40
[4]; compared to stressed control, cold stress, Carnitine alone 0.30 g
  non-photochemical quenching (NPQt), Difference (%): −4.8%
Corn (cv. H140354); [10]
  linear electron flow (LEF), Mean: 10.14
  photosynthetic efficiency (photosystem II efficiency, Phi2), Mean: 0.32
  root length, Mean: 263.3
Corn (cv. H140354); [11]
  linear electron flow (LEF), Difference (%): −4.3%
  non-photochemical quenching (NPQt), Difference (%): −10.0%
  photosynthetic efficiency (Phi2), Difference (%): 5.7%
  root length, Difference (%): 16.4%
Corn (cv. H140354); indicator of plant stress level, drought stress (75% reduced irrigation), ANE alone 2 ml/kg, CAR alone 0.3 g/kg
  non-photochemical quenching (NPQt), Mean: 2.32
Corn (cv. H140354); stated as decrease vs stressed control, CAR at 0.3 g/kg, drought stress
  decrease in LEF: 4.3%
